The text below walks through data of ChEMBL document CHEMBL1921772, “Crassocolides N-P, three cembranoids from the Formosan soft coral Sarcophyton crassocaule” (Bioorg Med Chem Lett, 2011).

In brackets after ≈: the same amount, converted by molar mass. A value given as a limit tells only on which side of the number the result lay.

Assay type in all cases: functional, cell-based
In test [1] the test system is KB. Nature of the test: Cytotoxicity against human KB cells after 1 to 11 days by MTT assay. (Formazan colour is commonly taken as a measure of viable cells.)
In test [2] the test system is HeLa. Nature of the test: Cytotoxicity against human HeLa cells after 1 to 11 days by MTT assay.
Test [3] relates to Daoy. Nature of the test: Cytotoxicity against human DaOY cells after 1 to 11 days by MTT assay.

Usually IC50 stands for the concentration that inhibits the measured activity by half. Turning to `C=C1C(=O)O[C@H]2/C=C(\C)CC/C=C(\C)CCC(=O)[C@]3(C)O[C@@H]3C[C@@H]12` [CRASSOCOLIDE N], the IC50 in test [1] stood at 4.7 µg/mL (≈ 14.2 µM); in test [2], 4.7 µg/mL (≈ 14.2 µM); in test [3], 2.8 µg/mL (≈ 8.47 µM).
`C=C1C(=O)O[C@H]2/C=C(\C)CC/C=C(\C)CCC(=O)/C(C)=C\C[C@@H]12` [CRASSOCOLIDE O]: the IC50 in test [1] is above 20 µg/mL; in test [2], above 20 µg/mL; in test [3], 4.5 µg/mL (≈ 14.3 µM).
On to `C=C1C(=O)O[C@H]2/C=C(\C)CC/C=C(\C)CC[C@H](OC(C)=O)/C(C)=C\C[C@@H]12` [CRASSOCOLIDE P], for which the IC50 is above 20 µg/mL in test [1], 10.8 µg/mL (≈ 30.1 µM) in test [2] and 1.9 µg/mL (≈ 5.3 µM) in test [3].
The like results for `CO[C@@]12[C@H](COC(N)=O)C3=C(C(=O)C(C)=C(N)C3=O)N1C[C@@H]1N[C@@H]12` [MITOMYCIN] were, in that order, 0.08 µg/mL (≈ 0.239 µM), 0.06 µg/mL (≈ 0.179 µM) and 0.05 µg/mL (≈ 0.15 µM).
